Results published in patent US11945822B2, “Pyrazolo-triazine and/or pyrazolo-pxrimidine derivatives as selective inhibitor of cyclin dependent kinase” (QURIENT CO., LTD., priority 2018, dated 2024).

Tested on: MV4-11
Test: Cellular MV4-11 viability assay (CellTiter-Glo, 72 hours)
Assay type: cell-based
Conditions: Homo sapiens
Experimental: (§1) All cell lines were routinely tested for mycoplasma.
(§2) The effect of the CDK7 inhibitor to inhibit the growth of target cancer cells was evaluated through the 72 hours time period of viability assay. Briefly, the candidate cell line ware plated in 96 well plate at the following density of cells respectively. […] DMSO solvent without compound served as a control and final DMSO concentration less than 0.1%. After 72 hours of incubation at 37° C., 5% CO2 incubator, cells were analyzed for the viability using the CellTiter-Glo Luminescent Cell Viability Assay (Promega, Cat #G7570). All viability assays were performed in duplicate and Luminescence was read using an Envision (Perkin Elmer, USA). Data was analyzed using XLfit software.

IC50 [nM]	SMILES
< 1000	CC(C)c1cnn2c(NCc3ccccc3-n3cccn3)nc(-c3cccc(C4CCNCC4)c3)nc12 [Compound 165]
< 1000	CC(C)c1cnn2c(NCc3ccccc3-n3cccn3)nc(-c3cccc(N4CCNCC4)c3)nc12 [Compound 167]
< 1000	CC(C)c1cnn2c(NCc3ccccc3-n3cc4cc(O)ccc4n3)nc(N3CCC(N)CC3)nc12 [Compound 159]
1000 to 10000	Cc1ccc(-c2cc3ccccc3[nH]2)c(CNc2nc(N3CCC(N)CC3)nc3c(C(C)C)cnn23)c1 [Compound 190]
< 1000	Cc1ccc(CNc2nc(N3CCC(N)CC3)nc3c(C(C)C)cnn23)c(-c2cc3ccccc3[nH]2)c1 [Compound 191]
< 1000	CC(C)c1cnn2c(NCc3ccccc3-n3cc4cc(NS(C)(=O)=O)ccc4n3)nc(N3CCC(N)CC3)nc12 [Compound 158]

Biological target: T1, CDK1/Cyclin B (Homo sapiens, UniProt P06493)
T1 construct: purchased Invitrogen PR4768C
T1 sequence (P06493 whole entry): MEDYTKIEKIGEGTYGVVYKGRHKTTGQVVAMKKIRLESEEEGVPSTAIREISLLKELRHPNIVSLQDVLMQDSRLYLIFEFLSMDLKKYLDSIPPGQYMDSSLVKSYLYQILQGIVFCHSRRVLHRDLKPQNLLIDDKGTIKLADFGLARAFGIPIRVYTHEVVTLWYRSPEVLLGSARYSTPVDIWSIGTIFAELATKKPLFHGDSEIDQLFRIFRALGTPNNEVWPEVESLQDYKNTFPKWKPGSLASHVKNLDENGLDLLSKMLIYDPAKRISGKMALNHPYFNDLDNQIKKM
T1 sequence (P14635 whole entry partner): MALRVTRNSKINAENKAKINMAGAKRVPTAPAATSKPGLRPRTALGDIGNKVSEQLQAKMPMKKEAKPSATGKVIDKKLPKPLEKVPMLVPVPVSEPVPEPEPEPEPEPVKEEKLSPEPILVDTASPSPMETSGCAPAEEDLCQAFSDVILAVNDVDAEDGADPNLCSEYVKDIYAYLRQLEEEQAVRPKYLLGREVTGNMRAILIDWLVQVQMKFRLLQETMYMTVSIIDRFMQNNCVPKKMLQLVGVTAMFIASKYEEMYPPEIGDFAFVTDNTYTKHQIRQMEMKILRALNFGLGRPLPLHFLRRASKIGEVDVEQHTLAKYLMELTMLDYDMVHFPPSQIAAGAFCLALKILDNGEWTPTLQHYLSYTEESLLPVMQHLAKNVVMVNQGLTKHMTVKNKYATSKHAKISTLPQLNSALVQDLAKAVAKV
Test: Enzymatic assay for CDK1 (FRET based LANCE Ultra kinase assay)
Assay type: biochemical
Conditions: read-out: CDK1 enzymatic activity (IC50 range)
Experimental: (§3) Enzymatic Binding Assay Protocol for CDK1, CDK2, CDK5 and CDK7
(§4) Inhibition activity of the respective compound on CDK kinase under Km value of ATP was tested in FRET based The LANCE® Ultra kinase assay (Perkin Elmer), which uses a ULight™-labeled peptide substrate and an appropriate Europium-labeled anti-phospho-antibody. Test compounds were made with DMSO solutions, and then 4-fold serial dilutions for 8 doses were prepared using automated liquid handler (POD810, LABCYTE) and 80 nL/well of diluted compound solutions were added into the 384-well plates (Greiner, Cat #784075). And then 68 nM of ULight-MBP peptide (Perkin Elmer, Cat #TRF0109-M) and 5 ul/well of ATP (Sigma, Cat #A7699) were added to the plate. After 1 min centrifugation at 1000 rpm, Purified CDKs/Cyclin complex were added following concentrations respectively. 24 uM for CDK1/Cyclin B (Invitrogen, Cat #PR4768C), 22 uM for CDK2/Cyclin A (Invitrogen, Cat #PV6290), 10 uM for CDK5/p25 (Invitrogen, Cat #PR8543B) and […] for CDK7/Cyclin H/MNAT1 (Invitrogen, Cat #PR6749B) were added to the each corresponding plate for CDK1, CDK2, CDK5 and CDK7. Incubate at 23° C. for 60 min and then Eu-labeled anti-phospho-Myelin Basic Protein (PE, Cat #TRF0201-M) and EDTA (Invitrogen, Cat #15575038) mixture in Lance Detection Buffer (Perkin Elmer, Cat #CR97100) was added in each well. After additional incubation at 23° C. for 60 min, test articles were measured the fluorescence using Envision leader (Perkin Elmer, USA) [Laser as excitation light; […] as the first and the second emission filter]. Data was analyzed using XL Fit software.

IC50 [nM]	SMILES
> 1000	CC(C)c1cnn2c(NCc3ccccc3-n3cccn3)nc(-c3cccc(C4CCNCC4)c3)nc12 [Compound 165]
100 to 1000	CC(C)c1cnn2c(NCc3cccc4ccncc34)nc(N3CCC(N)CC3)nc12 [Compound 31]
> 1000	CC(C)c1cnn2c(NCc3ccccc3-n3cccn3)nc(-c3cccc(N4CCNCC4)c3)nc12 [Compound 167]
> 1000	CC(C)c1cnn2c(NCc3ccccc3-n3cc4cc(O)ccc4n3)nc(N3CCC(N)CC3)nc12 [Compound 159]
> 1000	Cc1ccc(-c2cc3ccccc3[nH]2)c(CNc2nc(N3CCC(N)CC3)nc3c(C(C)C)cnn23)c1 [Compound 190]
100 to 1000	Cc1ccc(CNc2nc(N3CCC(N)CC3)nc3c(C(C)C)cnn23)c(-c2cc3ccccc3[nH]2)c1 [Compound 191]
100 to 1000	CC(C)c1cnn2c(NCc3ccccc3-n3cc4cc(NS(C)(=O)=O)ccc4n3)nc(N3CCC(N)CC3)nc12 [Compound 158]

Tested on: HCT116
Test: Cellular HCT116 viability assay (CellTiter-Glo, 72 hours)
Assay type: cell-based
Conditions: Homo sapiens, HCT-116
Experimental: as §1, §2

IC50 [nM]	SMILES
< 1000	CC(C)c1cnn2c(NCc3cccc4ccncc34)nc(N3CCC(N)CC3)nc12 [Compound 31]
< 1000	CC(C)c1cnn2c(NCc3ccccc3-n3cc4cc(O)ccc4n3)nc(N3CCC(N)CC3)nc12 [Compound 159]
< 1000	CC(C)c1cnn2c(NCc3ccccc3-n3cc4cc(NS(C)(=O)=O)ccc4n3)nc(N3CCC(N)CC3)nc12 [Compound 158]

Tested on: H460
Test: Cellular H460 viability assay (CellTiter-Glo, 72 hours)
Assay type: cell-based
Conditions: Homo sapiens, NCI-H460
Experimental: as §1, §2

IC50 [nM]	SMILES
< 1000	CC(C)c1cnn2c(NCc3ccccc3-n3cccn3)nc(-c3cccc(C4CCNCC4)c3)nc12 [Compound 165]
< 1000	CC(C)c1cnn2c(NCc3cccc4ccncc34)nc(N3CCC(N)CC3)nc12 [Compound 31]
< 1000	CC(C)c1cnn2c(NCc3ccccc3-n3cccn3)nc(-c3cccc(N4CCNCC4)c3)nc12 [Compound 167]
1000 to 10000	Cc1ccc(-c2cc3ccccc3[nH]2)c(CNc2nc(N3CCC(N)CC3)nc3c(C(C)C)cnn23)c1 [Compound 190]
< 1000	Cc1ccc(CNc2nc(N3CCC(N)CC3)nc3c(C(C)C)cnn23)c(-c2cc3ccccc3[nH]2)c1 [Compound 191]

Biological target: T2, CDK7/Cyclin H/MNAT1 (Homo sapiens, UniProt P50613)
T2 construct: purchased Invitrogen PR6749B
T2 sequence (P50613 whole entry): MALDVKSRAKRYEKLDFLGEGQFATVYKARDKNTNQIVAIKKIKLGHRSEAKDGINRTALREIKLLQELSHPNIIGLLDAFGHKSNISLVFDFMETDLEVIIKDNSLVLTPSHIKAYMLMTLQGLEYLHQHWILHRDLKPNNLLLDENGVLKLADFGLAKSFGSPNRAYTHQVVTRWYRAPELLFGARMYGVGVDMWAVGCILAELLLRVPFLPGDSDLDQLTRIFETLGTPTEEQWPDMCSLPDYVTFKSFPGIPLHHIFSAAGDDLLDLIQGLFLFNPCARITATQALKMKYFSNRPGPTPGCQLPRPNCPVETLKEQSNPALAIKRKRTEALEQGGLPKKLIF
T2 sequence (P51946 whole entry partner): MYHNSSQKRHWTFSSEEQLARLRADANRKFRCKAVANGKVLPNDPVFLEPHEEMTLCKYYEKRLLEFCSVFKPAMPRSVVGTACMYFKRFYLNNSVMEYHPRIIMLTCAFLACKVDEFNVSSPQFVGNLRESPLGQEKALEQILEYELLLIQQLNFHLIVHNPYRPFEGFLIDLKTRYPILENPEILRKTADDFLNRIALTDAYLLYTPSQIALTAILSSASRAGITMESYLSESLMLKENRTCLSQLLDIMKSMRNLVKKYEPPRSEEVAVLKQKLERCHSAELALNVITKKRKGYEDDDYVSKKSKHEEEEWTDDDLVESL
T2 sequence (P51948 whole entry partner): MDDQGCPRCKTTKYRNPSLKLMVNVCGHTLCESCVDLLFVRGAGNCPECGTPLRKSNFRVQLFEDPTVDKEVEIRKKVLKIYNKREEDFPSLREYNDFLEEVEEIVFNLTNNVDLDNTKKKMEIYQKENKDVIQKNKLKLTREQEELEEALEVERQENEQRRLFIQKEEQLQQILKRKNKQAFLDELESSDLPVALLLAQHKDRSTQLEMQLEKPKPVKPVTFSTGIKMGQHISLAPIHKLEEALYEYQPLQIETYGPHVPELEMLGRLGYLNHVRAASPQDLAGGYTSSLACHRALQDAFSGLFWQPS
Test: Enzymatic assay for CDK7 (FRET based LANCE Ultra kinase assay)
Assay type: biochemical
Conditions: CDK7 over CDK1
Experimental: as §3
Inhibition activity of the respective compound on CDK kinase under Km value of ATP was tested in FRET based The LANCE® Ultra kinase assay (Perkin Elmer), which uses a ULight™-labeled peptide substrate and an appropriate Europium-labeled anti-phospho-antibody. […] After 1 min centrifugation at 1000 rpm, Purified CDKs/Cyclin complex were added following concentrations respectively. […] Data was analyzed using XL Fit software.

CDK1/CDK7: Selectivity of CDK7 inhibition over CDK1 inhibition	SMILES
A (A=greater than 200 fold)	CC(C)c1cnn2c(NCc3ccccc3-n3cccn3)nc(-c3cccc(C4CCNCC4)c3)nc12 [Compound 165]
A (A=greater than 200 fold)	CC(C)c1cnn2c(NCc3ccccc3-n3cccn3)nc(-c3cccc(N4CCNCC4)c3)nc12 [Compound 167]
A (A=greater than 200 fold)	CC(C)c1cnn2c(NCc3ccccc3-n3cc4cc(O)ccc4n3)nc(N3CCC(N)CC3)nc12 [Compound 159]
A (A=greater than 200 fold)	Cc1ccc(-c2cc3ccccc3[nH]2)c(CNc2nc(N3CCC(N)CC3)nc3c(C(C)C)cnn23)c1 [Compound 190]

SMILES	CDK1/CDK7: Selectivity of CDK7 inhibition over CDK1 inhibition
CC(C)c1cnn2c(NCc3cccc4ccncc34)nc(N3CCC(N)CC3)nc12 [Compound 31]	B (B=less than 200 fold, but greater than 20 fold)
Cc1ccc(CNc2nc(N3CCC(N)CC3)nc3c(C(C)C)cnn23)c(-c2cc3ccccc3[nH]2)c1 [Compound 191]	B (B=less than 200 fold, but greater than 20 fold)
CC(C)c1cnn2c(NCc3ccccc3-n3cc4cc(NS(C)(=O)=O)ccc4n3)nc(N3CCC(N)CC3)nc12 [Compound 158]	B (B=less than 200 fold, but greater than 20 fold)

Same assay, conditions: CDK7 over CDK2

SMILES	CDK2/CDK7: Selectivity of CDK7 inhibition over CDK2 inhibition
CC(C)c1cnn2c(NCc3ccccc3-n3cccn3)nc(-c3cccc(C4CCNCC4)c3)nc12 [Compound 165]	B (B=less than 200 fold, but greater than 20 fold)
CC(C)c1cnn2c(NCc3cccc4ccncc34)nc(N3CCC(N)CC3)nc12 [Compound 31]	B (B=less than 200 fold, but greater than 20 fold)
CC(C)c1cnn2c(NCc3ccccc3-n3cccn3)nc(-c3cccc(N4CCNCC4)c3)nc12 [Compound 167]	B (B=less than 200 fold, but greater than 20 fold)
CC(C)c1cnn2c(NCc3ccccc3-n3cc4cc(O)ccc4n3)nc(N3CCC(N)CC3)nc12 [Compound 159]	B (B=less than 200 fold, but greater than 20 fold)
Cc1ccc(-c2cc3ccccc3[nH]2)c(CNc2nc(N3CCC(N)CC3)nc3c(C(C)C)cnn23)c1 [Compound 190]	A (A=greater than 200 fold)
Cc1ccc(CNc2nc(N3CCC(N)CC3)nc3c(C(C)C)cnn23)c(-c2cc3ccccc3[nH]2)c1 [Compound 191]	B (B=less than 200 fold, but greater than 20 fold)
CC(C)c1cnn2c(NCc3ccccc3-n3cc4cc(NS(C)(=O)=O)ccc4n3)nc(N3CCC(N)CC3)nc12 [Compound 158]	B (B=less than 200 fold, but greater than 20 fold)

Same assay, conditions: CDK7 over CDK5

SMILES	CDK5/CDK7: Selectivity of CDK7 inhibition over CDK5 inhibition
CC(C)c1cnn2c(NCc3ccccc3-n3cccn3)nc(-c3cccc(C4CCNCC4)c3)nc12 [Compound 165]	B (B=less than 200 fold, but greater than 20 fold)
CC(C)c1cnn2c(NCc3cccc4ccncc34)nc(N3CCC(N)CC3)nc12 [Compound 31]	C (C=less than 20 fold)
CC(C)c1cnn2c(NCc3ccccc3-n3cccn3)nc(-c3cccc(N4CCNCC4)c3)nc12 [Compound 167]	B (B=less than 200 fold, but greater than 20 fold)
CC(C)c1cnn2c(NCc3ccccc3-n3cc4cc(O)ccc4n3)nc(N3CCC(N)CC3)nc12 [Compound 159]	B (B=less than 200 fold, but greater than 20 fold)
Cc1ccc(-c2cc3ccccc3[nH]2)c(CNc2nc(N3CCC(N)CC3)nc3c(C(C)C)cnn23)c1 [Compound 190]	B (B=less than 200 fold, but greater than 20 fold)
Cc1ccc(CNc2nc(N3CCC(N)CC3)nc3c(C(C)C)cnn23)c(-c2cc3ccccc3[nH]2)c1 [Compound 191]	B (B=less than 200 fold, but greater than 20 fold)
CC(C)c1cnn2c(NCc3ccccc3-n3cc4cc(NS(C)(=O)=O)ccc4n3)nc(N3CCC(N)CC3)nc12 [Compound 158]	B (B=less than 200 fold, but greater than 20 fold)

Same assay, conditions: read-out: CDK7 enzymatic activity (IC50 range)

IC50 [nM]	SMILES
< 100	CC(C)c1cnn2c(NCc3ccccc3-n3cccn3)nc(-c3cccc(C4CCNCC4)c3)nc12 [Compound 165]
< 100	CC(C)c1cnn2c(NCc3cccc4ccncc34)nc(N3CCC(N)CC3)nc12 [Compound 31]
< 100	CC(C)c1cnn2c(NCc3ccccc3-n3cccn3)nc(-c3cccc(N4CCNCC4)c3)nc12 [Compound 167]
< 100	CC(C)c1cnn2c(NCc3ccccc3-n3cc4cc(O)ccc4n3)nc(N3CCC(N)CC3)nc12 [Compound 159]
< 100	Cc1ccc(-c2cc3ccccc3[nH]2)c(CNc2nc(N3CCC(N)CC3)nc3c(C(C)C)cnn23)c1 [Compound 190]
< 100	Cc1ccc(CNc2nc(N3CCC(N)CC3)nc3c(C(C)C)cnn23)c(-c2cc3ccccc3[nH]2)c1 [Compound 191]
< 100	CC(C)c1cnn2c(NCc3ccccc3-n3cc4cc(NS(C)(=O)=O)ccc4n3)nc(N3CCC(N)CC3)nc12 [Compound 158]

Biological target: T3, CDK2/Cyclin A (Homo sapiens, UniProt P24941)
T3 construct: purchased Invitrogen PV6290
Test: Enzymatic assay for CDK2 (FRET based LANCE Ultra kinase assay)
Assay type: biochemical
Conditions: read-out: CDK2 enzymatic activity (IC50 range)
Experimental: as §3, §4

IC50 [nM]	SMILES
> 1000	CC(C)c1cnn2c(NCc3ccccc3-n3cccn3)nc(-c3cccc(C4CCNCC4)c3)nc12 [Compound 165]
< 100	CC(C)c1cnn2c(NCc3cccc4ccncc34)nc(N3CCC(N)CC3)nc12 [Compound 31]
> 1000	CC(C)c1cnn2c(NCc3ccccc3-n3cccn3)nc(-c3cccc(N4CCNCC4)c3)nc12 [Compound 167]
100 to 1000	CC(C)c1cnn2c(NCc3ccccc3-n3cc4cc(O)ccc4n3)nc(N3CCC(N)CC3)nc12 [Compound 159]
> 1000	Cc1ccc(-c2cc3ccccc3[nH]2)c(CNc2nc(N3CCC(N)CC3)nc3c(C(C)C)cnn23)c1 [Compound 190]
100 to 1000	Cc1ccc(CNc2nc(N3CCC(N)CC3)nc3c(C(C)C)cnn23)c(-c2cc3ccccc3[nH]2)c1 [Compound 191]
100 to 1000	CC(C)c1cnn2c(NCc3ccccc3-n3cc4cc(NS(C)(=O)=O)ccc4n3)nc(N3CCC(N)CC3)nc12 [Compound 158]

Biological target: T4, CDK5/p25 (Homo sapiens, UniProt Q00535)
T4 construct: purchased Invitrogen PR8543B
T4 sequence (Q00535 whole entry): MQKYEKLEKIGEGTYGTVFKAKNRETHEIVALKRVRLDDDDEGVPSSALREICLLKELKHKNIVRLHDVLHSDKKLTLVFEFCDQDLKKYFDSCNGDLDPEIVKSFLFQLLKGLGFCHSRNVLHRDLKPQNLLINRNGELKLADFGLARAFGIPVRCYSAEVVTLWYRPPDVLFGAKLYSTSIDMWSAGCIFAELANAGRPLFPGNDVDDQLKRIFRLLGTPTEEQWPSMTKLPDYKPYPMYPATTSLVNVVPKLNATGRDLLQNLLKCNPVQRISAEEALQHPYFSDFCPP
T4 sequence (Q15078 99-307 partner limits assumed): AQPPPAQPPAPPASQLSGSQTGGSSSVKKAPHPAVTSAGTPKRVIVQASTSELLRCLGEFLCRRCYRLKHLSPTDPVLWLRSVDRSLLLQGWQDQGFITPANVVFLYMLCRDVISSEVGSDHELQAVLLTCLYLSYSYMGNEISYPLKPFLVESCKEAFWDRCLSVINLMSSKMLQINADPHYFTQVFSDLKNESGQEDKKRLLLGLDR
Test: Enzymatic assay for CDK5 (FRET based LANCE Ultra kinase assay)
Assay type: biochemical
Conditions: read-out: CDK5 enzymatic activity (IC50 range)
Experimental: as §3, §4

IC50 [nM]	SMILES
100 to 1000	CC(C)c1cnn2c(NCc3ccccc3-n3cccn3)nc(-c3cccc(C4CCNCC4)c3)nc12 [Compound 165]
< 100	CC(C)c1cnn2c(NCc3cccc4ccncc34)nc(N3CCC(N)CC3)nc12 [Compound 31]
100 to 1000	CC(C)c1cnn2c(NCc3ccccc3-n3cccn3)nc(-c3cccc(N4CCNCC4)c3)nc12 [Compound 167]
100 to 1000	CC(C)c1cnn2c(NCc3ccccc3-n3cc4cc(O)ccc4n3)nc(N3CCC(N)CC3)nc12 [Compound 159]
> 1000	Cc1ccc(-c2cc3ccccc3[nH]2)c(CNc2nc(N3CCC(N)CC3)nc3c(C(C)C)cnn23)c1 [Compound 190]
100 to 1000	Cc1ccc(CNc2nc(N3CCC(N)CC3)nc3c(C(C)C)cnn23)c(-c2cc3ccccc3[nH]2)c1 [Compound 191]
< 100	CC(C)c1cnn2c(NCc3ccccc3-n3cc4cc(NS(C)(=O)=O)ccc4n3)nc(N3CCC(N)CC3)nc12 [Compound 158]
